The values that follow are results of earlier work, collected in patent US20140004043A1, “CRYPTOPHANE DERIVATIVES AND METHODS OF USE THEREOF” (Georgetown Univeristy, priority 2010, published 2014).

Where two headings read alike, the source gives them in different places.

The conditions of this series: cited from earlier work.

For `c1cc2c3cc1OCOc1ccc4c(c1)Cc1ccc5cc1Cc1ccc(cc1C4)OCOc1ccc(c(c1)Cc1ccc(cc1C2)OCO5)C3` (racemic) [Cryptophane 1, (±)-cryptophane-1,1,1], the “binding constant with xenon Ka” value (293 K in 1,1,2,2-tetrachloroethane-d2 (TCE-d2)) is ~10,000 M^−1. For the same compound, the Ka, association constant for xenon binding (TCE-d2, 293 K) is 10000 M⁻¹.

`COc1cc2c3cc1OCCOc1cc4c(cc1OC)Cc1cc5c(OC)cc1Cc1cc(c(OC)cc1C4)OCCOc1cc(c(cc1OC)C3)Cc1cc(OC)c(cc1C2)OCCO5` [A (or 222), (±)-cryptophane-A]: for the setting “TCE-d2, 278 K (footnote d)”, the “Ka, association constant for xenon binding” value is on record as 3300^d. Moreover, the binding constant Ka of the xenon complex (organic solution, 278K) was 3900 M⁻¹.
